The subject of experiment [1] is L1210 Leukämiezellen der Maus. The experiment can be described thus: Proliferation assay (incorporation of C14-labelled thymidine). Type of experiment: cell-based. The conditions noted are these: Mus musculus. An excerpt:
(§1) Die Bestimmung der zytostatischen Wirksamkeit der hier beschriebenen Verbindungen erfolgte an L1210 Leukämiezellen der Maus. Im einzelnen wurden folgende Testsysteme verwendet:
Bei dieser Methode wird in vitro nach Inkubation der Zellen mit unterschiedlichen Konzentrationen der Testsubstanz ermittelt, inwieweit die Zellen radioaktive DNA-Vorläufer (z.B. C14 markiertes Thymidin) einbauen können. Unbehandelte L1210 Zellen werden den gleichen Testbedingungen unterworfen und dienen als Kontrolle. Im folgenden ist die Methode kurz beschrieben.
L1210 Zellen in exponentieller Wachstumsphase (5 x 10^3/ml in RPMI 1640) werden in einer Mikrotiterplatte 72 Stunden mit unterschiedlichen Konzentrationen der Testsubstanz inkubiert (37°C, 5 % C021 95 % relative Luftfeuchte). Kontrolle bestehen aus Zellen, die lediglich mit frischem Medium inkubiert werden. Alle Bestimmungen werden als 4fach Bestimmungen durchgeführt. Nach 65 Stunden werden 50 µl C-1 14 Thymidin (1,5 µc/ml) zugegeben, um die DNA der Zelle radioaktiv zu markieren. Nach 7 Stunden Inkubation werden die Zellen abgesaugt, die DNA mit 5%iger Trichloressigsäure gefällt und nacheinander mit Wasser bzw. Methanol gewaschen.
Nach Trocknung bei 50°C wird die in die DNA eingebaute Radioaktivität nach Zugabe von 5 ml Szintillationsflüssigkeit ermittelt.
Die Ergebnisse werden angegeben als Verhältnis des Szintillationsindex nach Inkubation mit der Testsubstanz in Prozent der unbehandelten Kontrolle. Aus den so erhaltenen Meßwerten wird die Dosiswirkungskurve ermitelt und graphisch die IC50, d.h. die Konzentration, die unter Testbedingungen den Einbau von radioaktivem Thymidin um 50 % gegenüber der Kontrolle erniedrigt, ermittelt. Die IC50 Werte der hier beschriebenen Verbindungen im Vergleich zu Adriamycin (ADM) werden in der Tabelle 1 zusammengefaßt.

For experiment [2], the system named is L1210 Leukämiezellen. Kind of experiment: Colony formation of L1210 leukaemia cells in soft agar. Type of experiment: cell-based, Maus. The conditions noted are these: Mus musculus.
Excerpt: as §1
b) Koloniebildung von L1210 Leukämiezellen in soft agar.
Diese Methode dient zum Nachweis eines Einflusses der Testsubstanzen auf das Wachstumsverhalten der Zellen über mehrere Generationen (bei einer Zellzykluszeit von 10-12 Stunden werden in der Testzeit von 7 Tagen ca. 14 aufeinanderfolgende Generationen beobachtet).
Zytostatisch wirksame Substanzen bewirken in diesem Test eine Reduktion der zu beobachtenden Koloniezahl gegenüber einer unbehandelten Kontrolle. Im einzelnen wird der Test wie folgt durchgeführt:
500 Leukämiezellen pro Platte werden mit unterschiedlichen Konzentrationen von Testsubstanz 1 Stunde bei 37°C inkubiert. Anschließend werden die Zellen zweimal mit McCoy5A Medium gewaschen und schließlich in Petrischalen nach Zusatz von 0,3 % Agar ausgegossen. Kontrollen werden lediglich mit frischem Medium inkubiert. Anstelle der lstündigen Inkubation werden in manchen Fällen unterschiedliche Konzentrationen und Testsubstanz der oberen Agarschicht zugemischt, um so eine kontinuierliche Exposition der Zellen über die gesamte Inkubationszeit zu erreichen. Nach Erstarren des Agars werden die Platten im Brutschrank 7 Tage bei 37°C inkubiert (5 % C02, 95 % relative Luftfeuchtigkeit). Anschließend wird die Anzahl der entstandenen Kolonien mit einem Durchmesser 60 p gezählt. Die Ergebnisse werden angegeben als Koloniezahl in behandelten Agarplatten in Prozent der unbehandelten Kontrolle. Aus der so erhaltenen Dosiswirkungskurve wird die IC50 als Maß für die Wirksamkeit der Substanz ermittelt. Die Ergebnisse für die hier beschriebenen Verbindungen im Vergleich zu Adriamycin sind in der Tabelle 1 zusammengefaßt.

The mark [3] stands for this setting: L1210, read-out: Proliferationstest IC50.
[4] abbreviates: L1210, 168 h, read-out: Koloniebildungstest IC50, 7 Tage Inkubation.
The mark [5] stands for this setting: L1210, read-out: Koloniebildungstest IC50, 1 Stunde Inkubation.

Converted amounts (≈) assume the structure as drawn. Like-named read-outs stand apart in the source and are kept apart here.

Take `COc1cccc2c1C(=O)c1c(O)c3c(c(O)c1C2=O)C[C@@](O)(C(=O)CO)C[C@@H]3O[C@H]1C[C@H](N)[C@H](O)[C@H](C)O1` [ADM, Adriamycin, reference compound]: the IC50 in experiment [1] (setting [3]) worked out at 6 ng/mL (≈ 11 nM); in experiment [2] (setting [4]), 0.022 µg/mL (≈ 40.5 nM); in experiment [2] (setting [5]), 0.044 µg/mL (≈ 81 nM).

As to `CCC1(O)CC(OC2CC(N(C)C)C(OC3CCC(OC4C=CC(=O)C(C)O4)C(C)O3)C(C)O2)c2c(O)c3c(c(O)c2C1OC1CC(N(C)C)C(OC2CCC(OC4CCC(O)C(C)O4)C(C)O2)C(C)O1)C(=O)c1c(O)ccc(O)c1C3=O` (stereo not drawn) [1-OH-Cytorhodin V, 1-Hydroxy-Cytorhodin V], the IC50 in experiment [1] (L1210 cells, 72 h incubation with test substance, C14 thymidine added after 65 h, IC50 read graphically, read-out: Proliferationstest IC50) turned out to be 2.8 ng/mL (≈ 2.39 nM); in experiment [2] (168 h, L1210 cells in soft agar, continuous exposure (substance mixed into upper agar layer), 7 days at 37°C, read-out: Koloniebildungstest IC50, 7 Tage Inkubation), 0.00045 µg/mL (≈ 0.385 nM); in experiment [2] (L1210 cells, 1 h incubation with substance at 37°C, washed, then 7 days in soft agar, read-out: Koloniebildungstest IC50, 1 Stunde Inkubation), 0.0024 µg/mL (≈ 2.05 nM).

Turning to `CCC1(O)CC(OC2CC(N(C)C)C(OC3CCC(OC4CCC(O)C(C)O4)C(C)O3)C(C)O2)c2c(O)c3c(c(O)c2C1OC1CC(N(C)C)C(OC2CCC(OC4CCC(O)C(C)O4)C(C)O2)C(C)O1)C(=O)c1c(O)ccc(O)c1C3=O` (stereo not drawn) [1-OH-Cytorhodin A, 1-Hydroxy-Cytorhodin A], the IC50 worked out at 3 ng/mL (≈ 2.56 nM) in experiment [1] (setting [3]), 0.0028 µg/mL (≈ 2.39 nM) in experiment [2] (setting [4]) and 0.026 µg/mL (≈ 22.2 nM) in experiment [2] (setting [5]).

The values are drawn from EP0167954A2, “1-Hydroxy-cytorhodines, a microbiological method for their preparation and their use as cytostatic agents” (HOECHST AKTIENGESELLSCHAFT, priority 1984, dated 1986).
